In BindingDB's records for PubMed 2971798 (University of Pennsylvania, 1988):

Key:
D(2) dopamine receptor = D(2) dopamine receptor (Canis lupus familiaris, UniProt Q9GJU1)
[1] = molecular target: T1, 5-hydroxytryptamine receptor 2C (Canis lupus familiaris, UniProt Q60F97)
T1 sequence (Q60F97 whole entry): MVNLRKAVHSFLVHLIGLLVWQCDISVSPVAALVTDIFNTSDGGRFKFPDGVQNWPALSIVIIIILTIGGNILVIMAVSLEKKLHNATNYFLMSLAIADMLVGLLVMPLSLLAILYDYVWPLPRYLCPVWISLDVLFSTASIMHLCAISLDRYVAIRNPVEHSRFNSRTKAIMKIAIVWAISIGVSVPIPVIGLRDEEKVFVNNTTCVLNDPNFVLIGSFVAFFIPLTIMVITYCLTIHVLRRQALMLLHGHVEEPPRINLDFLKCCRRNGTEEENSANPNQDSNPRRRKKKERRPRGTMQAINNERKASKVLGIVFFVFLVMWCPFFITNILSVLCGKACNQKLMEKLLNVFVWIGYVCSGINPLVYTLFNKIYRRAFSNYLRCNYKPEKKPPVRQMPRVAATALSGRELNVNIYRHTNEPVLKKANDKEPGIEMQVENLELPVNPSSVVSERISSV

Chain of D(2) dopamine receptor (Q9GJU1 whole entry): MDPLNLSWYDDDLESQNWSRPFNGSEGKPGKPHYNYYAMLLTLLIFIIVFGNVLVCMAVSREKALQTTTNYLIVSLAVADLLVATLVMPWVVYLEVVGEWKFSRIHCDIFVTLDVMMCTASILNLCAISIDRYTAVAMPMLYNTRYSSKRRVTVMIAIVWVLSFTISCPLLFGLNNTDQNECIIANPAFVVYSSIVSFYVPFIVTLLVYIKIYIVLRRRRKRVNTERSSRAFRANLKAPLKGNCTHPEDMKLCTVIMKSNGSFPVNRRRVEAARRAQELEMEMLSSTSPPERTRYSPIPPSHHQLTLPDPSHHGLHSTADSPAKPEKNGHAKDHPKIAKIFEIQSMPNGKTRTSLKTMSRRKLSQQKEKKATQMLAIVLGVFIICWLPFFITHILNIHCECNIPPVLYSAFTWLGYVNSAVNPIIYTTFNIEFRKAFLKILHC

| Ki (D(2) dopamine receptor) [nM] | Ki [1] [nM] | Compound |
| --- | --- | --- |
| > 10000 |  | NCCc1ccc(O)c(O)c1 |
| 166 | 13 | O=C(c1ccc(F)cc1)C1CCN(CCn2c(=O)[nH]c3ccccc3c2=O)CC1 [3-(2-{4-[(4-fluorophenyl)carbonyl]piperidin-1-yl}ethyl)-1,2,3,4-tetrahydroquinazoline-2,4-dione] |
| 30 |  | OCCN1CCN(CC/C=C2/c3ccccc3Sc3ccc(C(F)(F)F)cc32)CC1 [(cis) 2-{4-[3-(2-Trifluoromethyl-thioxanthen-9-ylidene)-propyl]-piperazin-1-yl}-ethanol(Flupentixol)] |
| 161 | 2.8 | CN1CCN2c3ccccc3Cc3ccccc3[C@H]2C1 [MIANSERIN (+)] |

| Compound | Ki (D(2) dopamine receptor) [nM] | Ki [1] [nM] |
| --- | --- | --- |
| NCCc1c[nH]c2ccc(O)cc12 [[3H]-5-HT] | > 10000 |  |
